Assay results: PubChem BioAssay AID248 (DTP/NCI, 2004)
Values joined by “and” are separate entries in the source; they are usually repeats but may differ in a detail not shown here. Equal entries are not always repeated. Toxic doses and inconclusive results are not listed. Cut-off read from the data, not from the text of the source: active = T/C of 150% or more; inactive = T/C below 125%.

Test system: L1210 leukemia ip in BDF1 mice, survival T/C
Assay: NCI In Vivo Anticancer Drug Screen. Data for tumor model L1210 Leukemia (intraperitoneal) in B6D2F1 (BDF1) mice
Conditions: endpoint: mean survival time, higher = longer survival
How it was run: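 In this screen, tumor-bearing mice given compound are compared to those given vehicle, and their survival values are reported as a treated-to-control quotient.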

[1] = dose: 100.0 mg/kg/injection, schedule: Q04DX003 (ip), vehicle: saline with Tween-80
[2] = dose: 200.0 mg/kg/injection, schedule: Q04DX003 (ip), vehicle: saline with Tween-80
[3] = dose: 400.0 mg/kg/injection, schedule: Q04DX003 (ip), vehicle: saline with Tween-80
[4] = dose: 100.0 mg/kg/injection, schedule: Q01DX009 (ip), vehicle: saline
[5] = dose: 100.0 mg/kg/injection, schedule: Q01DX001 (ip), vehicle: saline
[6] = dose: 200.0 mg/kg/injection, schedule: Q01DX001 (ip), vehicle: saline
[7] = dose: 400.0 mg/kg/injection, schedule: Q01DX001 (ip), vehicle: saline

Measured: T/C

CN(C)CCN(C)C(=O)C(c1ccccc1)C1CCCCC1 (stereo not drawn)
inactive: dose: 75.0 mg/kg/injection, schedule: Q01DX001 (ip), vehicle: saline 103 % of control | dose: 150.0 mg/kg/injection, schedule: Q01DX001 (ip), vehicle: saline 97 % of control

CCOC(=O)C(=[N+]=[N-])S(=O)(=O)c1ccccc1
inactive: [1] 97 % of control | [2] 101 % of control | [3] 114 % of control

O=S(=O)(NC(=S)c1ccccc1)c1ccccc1
inactive: dose: 50.0 mg/kg/injection, schedule: Q01DX009 (ip), vehicle: saline 108 % of control | [4] 97 % of control

C=CC1CCN(CCn2cc(C)c(=O)[nH]c2=O)CC1
inactive: [1] 101 % of control | [2] 107 % of control | [3] 101 % of control

N#C/C(=C/C=C/c1ccccc1)c1cccc([N+](=O)[O-])c1
inactive: dose: 100.0 mg/kg/injection, schedule: Q01DX009 (ip), vehicle: saline with Tween-80 108 % of control | dose: 200.0 mg/kg/injection, schedule: Q01DX009 (ip), vehicle: saline with Tween-80 91 % of control | dose: 400.0 mg/kg/injection, schedule: Q01DX009 (ip), vehicle: saline with Tween-80 100 % of control

CCOC(=O)CC(=O)c1ccc(OC)cc1
inactive: dose: 100.0 mg/kg/injection, schedule: Q01DX001 (ip), vehicle: Klucel (hydroxypropylcellulose) (HPC) 101 % of control | dose: 200.0 mg/kg/injection, schedule: Q01DX001 (ip), vehicle: Klucel (hydroxypropylcellulose) (HPC) 106 % of control | dose: 400.0 mg/kg/injection, schedule: Q01DX001 (ip), vehicle: Klucel (hydroxypropylcellulose) (HPC) 107 % of control

Oc1ccccc1C1CCCCC1
inactive: dose: 12.5 mg/kg/injection, schedule: Q01DX009 (ip), vehicle: gum acacia 102 % of control | dose: 25.0 mg/kg/injection, schedule: Q01DX009 (ip), vehicle: gum acacia 100 % of control | dose: 50.0 mg/kg/injection, schedule: Q01DX009 (ip), vehicle: gum acacia 98 % of control

N#CCC1(O)c2ccccc2-c2ccccc21
inactive: dose: 50.0 mg/kg/injection, schedule: Q01DX001 (ip), vehicle: saline 98 % of control | [5] 98 % of control | [6] 102 % of control | [7] 96 % of control

Clc1ccc2nnnn2n1
inactive: dose: 12.5 mg/kg/injection, schedule: Q01DX009 (ip), vehicle: saline with Tween-80 97 % of control | dose: 25.0 mg/kg/injection, schedule: Q01DX009 (ip), vehicle: saline with Tween-80 100 % of control | dose: 50.0 mg/kg/injection, schedule: Q01DX009 (ip), vehicle: saline with Tween-80 110 % of control | dose: 62.5 mg/kg/injection, schedule: Q04DX003 (ip), vehicle: saline 109 % of control | dose: 100.0 mg/kg/injection, schedule: Q04DX002 (ip), vehicle: Klucel (hydroxypropylcellulose) (HPC) 115 % of control | dose: 125.0 mg/kg/injection, schedule: Q04DX003 (ip), vehicle: saline 109 % of control | dose: 200.0 mg/kg/injection, schedule: Q04DX002 (ip), vehicle: Klucel (hydroxypropylcellulose) (HPC) 115 % of control | dose: 400.0 mg/kg/injection, schedule: Q04DX002 (ip), vehicle: Klucel (hydroxypropylcellulose) (HPC) 112 % of control

CC(=O)OC1CCC2(C)C(CCC3C4CC=C(C(C)=O)C4(C)OC(=O)CC32)C1 (stereo not drawn)
inactive: dose: 12.5 mg/kg/injection, schedule: Q01DX009 (ip), vehicle: Klucel (hydroxypropylcellulose) (HPC) 98 % of control | dose: 25.0 mg/kg/injection, schedule: Q01DX009 (ip), vehicle: Klucel (hydroxypropylcellulose) (HPC) 96 % of control | dose: 50.0 mg/kg/injection, schedule: Q01DX009 (ip), vehicle: Klucel (hydroxypropylcellulose) (HPC) 98 % of control

CCCCOC(=O)c1ccc(NC(=O)CCC(C)Cl)cc1 (stereo not drawn)
inactive: dose: 100.0 mg/kg/injection, schedule: Q04DX003 (ip), vehicle: saline 94 % of control | dose: 200.0 mg/kg/injection, schedule: Q04DX003 (ip), vehicle: saline 90 % of control | dose: 400.0 mg/kg/injection, schedule: Q04DX003 (ip), vehicle: saline 92 % of control

[O-][n+]1c(Cl)cccc1Cl
inactive: dose: 15.0 mg/kg/injection, schedule: Q01DX001 (ip), vehicle: carboxymethylcellulose (CMC) 103 % of control | dose: 30.0 mg/kg/injection, schedule: Q01DX001 (ip), vehicle: carboxymethylcellulose (CMC) 112 % of control | dose: 60.0 mg/kg/injection, schedule: Q01DX001 (ip), vehicle: carboxymethylcellulose (CMC) 105 % of control

ClC(Cl)=C(Cl)C(Cl)=C(Cl)Cl
inactive: dose: 3.13 mg/kg/injection, schedule: Q04DX003 (ip), vehicle: Klucel (hydroxypropylcellulose) (HPC) 98 % of control | dose: 6.25 mg/kg/injection, schedule: Q04DX003 (ip), vehicle: Klucel (hydroxypropylcellulose) (HPC) 100 % of control | dose: 12.5 mg/kg/injection, schedule: Q04DX003 (ip), vehicle: Klucel (hydroxypropylcellulose) (HPC) 98 % of control | dose: 100.0 mg/kg/injection, schedule: Q04DX003 (ip), vehicle: carboxymethylcellulose (CMC) 101 % of control

CCOC(=O)C(C(=O)OCC)C(C)(C)c1ccccc1
inactive: [4] 104 % of control | dose: 200.0 mg/kg/injection, schedule: Q01DX009 (ip), vehicle: saline 103 % of control | dose: 400.0 mg/kg/injection, schedule: Q01DX009 (ip), vehicle: saline 101 % of control

CC(C)CC(=O)Cc1ccccc1
inactive: [5] 105 % of control | [6] 105 % of control | [7] 105 % of control

O=C1c2ccccc2C(=O)C(Cl)C1Cl (stereo not drawn)
inactive: dose: 1.56 mg/kg/injection, schedule: Q04DX003 (ip), vehicle: other 97 % of control | dose: 3.13 mg/kg/injection, schedule: Q04DX003 (ip), vehicle: other 92 % of control | dose: 6.25 mg/kg/injection, schedule: Q04DX003 (ip), vehicle: other 96 % of control and 100 % of control

NC(N)=N/N=C(\C=N\N=C(N)N)c1ccc(CCc2ccc(C(/C=N/N=C(N)N)=N\N=C(N)N)cc2)cc1
inactive: dose: 1.56 mg/kg/injection, schedule: Q04DX003 (ip), vehicle: saline 98 % of control | dose: 3.12 mg/kg/injection, schedule: Q04DX003 (ip), vehicle: saline 103 % of control

CN(C)c1ccc(C=Nc2cccc(Cl)c2)cc1
inactive: dose: 100.0 mg/kg/injection, schedule: Q04DX003 (ip), vehicle: Klucel (hydroxypropylcellulose) (HPC) 91 % of control | dose: 200.0 mg/kg/injection, schedule: Q04DX003 (ip), vehicle: Klucel (hydroxypropylcellulose) (HPC) 93 % of control | dose: 400.0 mg/kg/injection, schedule: Q04DX003 (ip), vehicle: Klucel (hydroxypropylcellulose) (HPC) 91 % of control
